# Test results published in patent publication US20040171795A1, “Novel peptides” (priority 2000, published 2004).
# pIC50: −log10 of the molar value.
# How the values were obtained:
# [1] = Measurement of CD spectrum; format: physicochemical
# Protocol: The peptide dissolved in 10 mM phosphate buffer (pH=7) containing 50 mM NaCl was evaluated for its CD spectrum in the presence and in the absence of 5 mM SDS by using a circular dichroism spectrophotometer (J-500A, manufactured by JASCO). The cell length was 1 mm. The measurement was conducted at 35° C. for 6 times in total. FIGS. 7 to 9 are respectively views showing mean residue ellipticity in CD spectroscopy of the peptide of SEQ ID NO:1, the peptide of SEQ ID NO:4 and the peptide of SEQ ID NO:16. As evident in FIGS. 7 to 9, the mean residue ellipticity obtained in the presence of SDS was the so called W curve and local minimums were found in the areas at the wavelength of 205 to 210 nm and 220 to 225 nm, and α-helix structure was thereby confirmed.
# Vero cell = assay: Storage stability of the complex with nucleic acid (luciferase activity); format: cell-based, monkey; details: luciferase-expressing plasmid 2 μg/mL, peptide 5 μM; reagents per attached protocol
# Protocol: Luciferase-expressing plasmid was introduced in Vero cell in accordance with the procedure described in Example 9 by using the opti-MEM prepared to have a concentration of the luciferase-expressing plasmid prepared in Example 7 of 2 μg/mL and a concentration of the peptide of SEQ ID NO:4 prepared in Example 1 of 5 μM to thereby measure the luciferase activity. The opti-MEM containing plasmid and peptide used were the one which had been prepared immediately before the gene introduction, and the one which had been prepared 1 week (7 days) in advance and stored at 4° C.
# For the purpose of reference, gene-introducing activity of Lipofectin and LipofectAMINE 2000 (manufactured by Life Technologies Oriental), which are commercially available plasmid-introducing agents, were also evaluated by mixing these reagent with luciferase-expressing plasmid in accordance with the attached protocol, and evaluating their gene-introducing activity after storing at 4° C. for 1 week.
# [2] = system: cell (Vero, T24 or A549 of Example 9; not given); assay: Nucleic acid-introducing ability, luciferase-expressing plasmid (procedure of Example 9); format: cell-based; details: for Nucleic acid-introducing ability: class of fluorescent count per 1 mg of protein per 1 second, highest of peptide 1.25, 2.5, 5 μM, plasmid 1 μg/mL
# Source text: A cell line established from monkey kidney (Vero cell) and a human bladder cancer cell (T24 cell) purchased from American Type Culture Collection (ATCC) and human lung cancer cell (A549 cell) purchased from Dainippon Pharmaceutical were inoculated on a 24 well culture plate (manufactured by NALGEN NUNC) at 1×10^5 cells/well. Vero cell and A549 cell were cultivated in DMEM (manufactured by Life Technologies Oriental) supplemented with 10% fetal bovine serum (hereinafter referred to as FBS, manufactured by NICHIREI), and T24 cell was cultivated in McCoy's 5a (manufactured by Life Technologies Oriental) supplemented with 10% FBS in 5% CO2 atmosphere at 37° C. for 24 hours. After removing the medium, opti-MEM (manufactured by Life Technologies Oriental) prepared to have the concentration of the luciferase-expressing plasmid prepared in Example 7 of 1 μg/mL and the concentration of the peptide prepared in Example 1 of 1.25, 2.5, or 5 μM was added, and the cells were cultivated for 5 hours. Next, in the case of Vero cell and A549 cell, the culture medium was replaced with DMEM supplemented with 10% FBS, and in the case of T24 cell, the medium was replaced with McCoy's 5a supplemented with 10% FBS, and cultivation was continued in 5% CO2 atmosphere and at 37° C. for another 24 hours. The luciferase activity expressed in the cell was then measured by the method instructed in luciferase assay system (manufactured by Promega). To be more specific, the cells were washed with phosphate-buffered saline (hereinafter referred to as PBS, manufactured by SIGMA), and the cells were lyzed with Passive Lysis Buffer attached to the kit. 20 μL of this cell lysate and 100 μL of the Luciferase Assay Reagent II attached to the kit was added to a fluorescence-measuring plate (Microlite™ 1 plate, manufactured by Dynatech), and after mixing, fluorescence was measured for 1 second by using a multilabel counter (ARVO™ SY1420 MULTILABEL COUNTER, manufactured by Wallac Beltold.
# Concentration of the protein in the cell lysate was measured by mixing 8 μL of the cell lysate and 200 μL of the protein assay solution (manufactured by Biorad) with 792 μL of ultrapure water in a disposable cuvette (UV fluorescent cuvette A204X, manufactured by Funakoshi), allowing the mixture to stand for 5 minutes at room temperature, and measuring the absorption at 595 nm with a spectrophotometer (DU640, manufactured by Beckman). Bovine serum albumin (BSA) was used for the standard protein. By using the thus obtained results, count per 1 second per 1 mg of protein of the cell lysate was calculated to thereby use the count as the luciferase activity, and the highest count in the three conditions of different peptide concentration was designated the gene-introducing ability of the peptide.
# It is to be noted that the nucleic acid-introducing ability was classified as described below on the bases of the fluorescent count per 1 mg of protein per 1 second (cps/mg protein).
# [3] = Affinity for phosphatidyl serine (EIA, inhibition of human Factor VIII binding); details: class of IC50 for inhibiting human Factor VIII binding, 5% BSA
# Protocol: The specific affinity of the peptide for phosphatidyl serine was evaluated by measuring activity of the peptide for inhibiting the binding of the human Factor VIII to phosphatidyl serine by using human Factor VIII which is known to bind to phosphatidyl serine but not to phosphatidyl choline in the presence of serum albumin. To be more specific, 100 μL of ethanol solution containing 10 μg/mL of phospholipids at a phosphatidyl serine (manufactured by SIGMA): phosphatidyl choline (manufactured by SIGMA) ratio of 3:7 was added to the wells of a 96 well plate (Immulon I, manufactured by Dynatech), and exsiccated by using a centrifugal evaporator (EC-95C, manufactured by Sakuma Seisakusho) at 40° C. for 40 minutes. 200 μL each of TBS (10 mM Tris-HCl (pH 7.4) containing 1% bovine serum albumin (BSA Fraction V, hereinafter referred to as BSA, manufactured by Seikagaku Corporation) and 0.9% (W/V) NaCl solution were added to each well, and the wells were blocked by allowing the plate to stand at 37° C. for 2.5 hours. After washing the plate with water, 100 μL of TBS solution supplemented with 5% BSA mixed with human Factor VIII (manufactured by American Diagnostica) at a final concentration 1 μg/mL and the peptide of predetermined dose prepared in Example 1 was added to each well, and the reaction was allowed to take place at 4° C. for 24 hours.
# After the completion of the reaction, the human Factor VIII that became bound to the phosphatidyl serine was measured by enzyme immunoassay (EIA) in accordance with the general procedure described in a book (“Enzyme Immunoassay (3rd ed.)”, Eiji Ishikawa et al., Igaku-Shoin, 1987). To be more specific, the measurement was conducted by using anti-human Factor VIII mouse monoclonal antibody (ESH8, manufactured by American Diagnostica) for the primary antibody, horseradish peroxidase-labeled anti-mouse IgG antibody (P0260, manufactured by Daco) for the secondary antibody, and tetramethylbenzidine for the chromogenic substrate, and measuring the absorption at a wavelength of 450 nm by using a reference wavelength of 630 nm on a spectrophotometer (NJ-2100, manufactured by Intermed).
# Intensity of the affinity of the peptide for the phosphatidyl serine was evaluated by using the value obtained by subtracting the absorption of the well having no human Factor VIII added thereto from the absorption of the well having only the human Factor VIII added thereto as the control value (100%), and designating the peptide concentration at which the value 0.5 was obtained when the value obtained by subtracting the absorption of the well having only the peptide added thereto from the absorption of the well having a mixture of the human Factor VIII and the peptide added thereto were divided by the control value as the IC50 value, and evaluating the intensity to be ++ when the IC50 value was up to 1 μM, and +when the intensity was more than 1 μM but not more than 10 μM. It is to be noted that the specific affinity was evaluated to be none when the intensity was 10 μM or more.
# [4] = Measurement of turbidity in BSA; format: physicochemical; details: BSA 1%, peptide 50 μM, absorbance at 600 nm
# Protocol: The solutions were evaluated for their absorbance at a wavelength of 600 nm by using a spectrophotometer (DU640, manufactured by Beckman).
# [5] = Affinity by surface plasmon resonance (Biacore 2000), flow cell 2; format: binding; details: SPR, HPA chip, 0.1 mg/mL BSA; compared with flow cell 1
# Protocol: (§1) The specific affinity of the peptide for phosphatidyl serine was evaluated by means of surface plasmon resonance (SPR) using Biacore 2000 (manufactured by Biacore). To be more specific, phosphatidyl choline was immobilized on flow cell 1, and 50% of phosphatidyl serine and 50% of phosphatidyl choline were immobilized on flow cell 2 of HPA chip (manufactured by Biacore), and ability of the peptide to bind to the phospholipid was evaluated in the presence of 0.1 mg/mL BSA to thereby evaluate the affinity.
# [6] = Affinity by surface plasmon resonance (Biacore 2000), flow cell 1; format: binding; details: SPR, HPA chip, 0.1 mg/mL BSA
# Protocol: as §1
Substance,pIC50 [3],Nucleic acid-introducing ability [2],OD 600 [4],other results
SEQ ID NO: 4: peptide of SEQ ID NO:1 with one or two locations substituted in the 18 amino acid sequence (TRYLRIHPRSWLHQIALRLRYLRIHPRSWLHQIALRS; synthetic peptide using an automatic peptide synthesizer),–,"4+ (10,000,000 or more)",–,"α-helix structure in CD spectrum in the absence of SDS ([1]; aqueous solution solely containing an inorganic salt, pH 7, 35° C.): do not take α-helix structure; gene-introducing activity after storing the complex at 4° C. for 1 week, relative to freshly prepared complex (Vero cell): substantially equivalent"
SEQ ID NO: 2: peptide of SEQ ID NO:1 with one or two locations substituted in the 18 amino acid sequence (TRYLRIHPRSWVRQIALRLRYLRIHPRSWVRQIALRS; synthetic peptide using an automatic peptide synthesizer),> 6.00,"3+ (1,000,000 to less than 10,000,000)",0.01>,–
SEQ ID NO: 11: peptide of SEQ ID NO:1 with one or two locations substituted in the 18 amino acid sequence (TRYLRIHPRLWVHQIALRLRYLRIHPRLWVHQIALRS; synthetic peptide using an automatic peptide synthesizer),5.00 to 6.00,"3+ (1,000,000 to less than 10,000,000)",0.01>,–
"SEQ ID NO:25: comparative peptide, same amino acid composition as SEQ ID NO:1 but an utterly random amino acid sequence (TIRYRPSHQIRLRAVLHLWIRYRPSHQIRLRAVLHWS; synthetic peptide using an automatic peptide synthesizer) [reference compound]",–,–,–,"binding to flow cell 2 (50% phosphatidyl serine, 50% phosphatidyl choline) [5]: no binding; α-helix structure in CD spectrum in the presence of SDS ([1]; 5 mM SDS, 10 mM phosphate buffer pH 7, 50 mM NaCl, 35° C.): no α-helix structure is found; ability of introducing the nucleic acid into a cell ([2]; procedure of Example 9, luciferase-expressing plasmid): neither the nucleic acid-introducing ability; binding to flow cell 1 (phosphatidyl choline) [6]: no binding"

# The next lines start with results.
pIC50 [3],Substance,Nucleic acid-introducing ability [2],OD 600 [4],other results
> 6.00,SEQ ID NO: 5: peptide of SEQ ID NO:1 with one or two locations substituted in the 18 amino acid sequence (TRFLRIHPRSWVHQIALRLRFLRIHPRSWVHQIALRS; synthetic peptide using an automatic peptide synthesizer),"2+ (100,000 to less than 1,000,000)",0.01>,–
> 6.00,SEQ ID NO: 6: peptide of SEQ ID NO:1 with one or two locations substituted in the 18 amino acid sequence (TRYLRIHPRSWVHNIALRLRYLRIHPRSWVHNIALRS; synthetic peptide using an automatic peptide synthesizer),"2+ (100,000 to less than 1,000,000)",0.01>,–
> 6.00,SEQ ID NO: 17: peptide of SEQ ID NO:1 with one or two locations substituted in the 18 amino acid sequence (TRSLRIHPRLWVHQIALRLRSLRIHPRLWVHQIALRS; synthetic peptide using an automatic peptide synthesizer),"2+ (100,000 to less than 1,000,000)",0.01>,–
5.00 to 6.00,SEQ ID NO: 7: peptide of SEQ ID NO:1 with one or two locations substituted in the 18 amino acid sequence (TRYLRIHPRSWVHQIALKLKYLRIHPRSWVHQIALRS; synthetic peptide using an automatic peptide synthesizer),"2+ (100,000 to less than 1,000,000)",0.01>,–
> 6.00,SEQ ID NO: 19: peptide of SEQ ID NO:1 with three locations substituted in the 18 amino acid sequence; preferred peptide (TRYLRLHPRSWLHQLALRLRYLRLHPRSWLHQLALRS; synthetic peptide using an automatic peptide synthesizer),"4+ (10,000,000 or more)",0.01>,–
